Test system: patients with schizophrenia
Assay: PANSS assessment in clinical trials CBD-CT1 and CBD-PT
Format: in vivo
Settings: for PANSS Positive Score: baseline 22.9 ± 4.3; for PANSS Negative Score: baseline 22.5 ± 6.0; for PANSS General Score: baseline 45.0 ± 8.2; for PANSS Total Score: baseline 90.4 ± 14.1
From the text: The Ethics Committee of the Faculty of Medicine of University of Cologne approved the clinical trial with application number 00-074 on Aug. 6, 2000.
All randomized patients complied with all inclusion and exclusion criteria: age between 18 and 50, male and female, persisting inpatient hospitalization, specific DSM-IV diagnoses, initial Brief Psychiatric Rating Scale (BPRS) score≥36, understanding of the study objectives and the course of the study, legal capacity, no pregnancy or lactation phase, reliable contraception.
CBD was administered as an oral dose in a capsule formulation. The dose was increased during the first week from 200 mg/d to 800 mg/d (4×200 mg) and remained at this level for the rest of the study period. Due to serious unwanted effects, the dose could be reduced irreversibly to 600 mg/d starting with day 15. […] Dose applications, blood sampling, and assessment of PANSS followed the time schedule presented below. Additional treatment with 7.5 mg lorazepam per day during the whole study period was permitted.
On 28 Jul. 2005 this clinical trial with application number 04-153 was approved by the Ethics Committee of the Faculty of Medicine of University of Cologne.
Eighteen patients with a diagnosis of schizophrenia or schizophreniform disorder should be included in this trial per protocol. Because dropouts had to be replaced by a new patient a total number of 29 patients was randomized from February 2006 to June 2008. All randomized patients complied with all inclusion and exclusion criteria: age between 18 and 65, male and female, specific DSM-IV diagnoses, initial BPRS score≥36, no pregnancy or lactation phase, reliable contraception, no lack of accountability, no other relevant interferences, no treatment with depot-antipsychotics during the last three months, no severe internal or neurological illness, no QTc prolongation, no acute suicidality nor endangerment of others by the patient. […] Treatment lasted four weeks: the first period with two weeks of CBD or placebo treatment was followed by a second period with a two-week treatment of placebo or CBD, respectively. There was no washout period between the two treatments. […] The dose could be reduced irreversibly to 400 mg/d in case of serious unwanted effects. […] The PANSS was applied at baseline and day 14 and 28. Dose applications, blood sampling, and assessment of PANSS followed the time schedule presented below. Additional treatment with 5.0 mg lorazepam per day during the whole study period was permitted.
The Positive and Negative Syndrome Scale (PANSS) is a psychopathological scale and was developed to assess the symptom severity in patients with schizophrenia. It was first described by Kay et al. in 1987 (Kay S R, Fiszbein A, Opler L A. “The positive and negative syndrome scale (PANSS) for schizophrenia”. Schizophrenia bulletin. 1987; 13(2):261-276.) and includes 30 questions which are a combination of 18 items of the BPRS and 12 items of the Psychopathology Rating Schedule ([…]) (see Leucht S, Kane J M, Kissling W, Hamann J, Etschel E, Engel R R. “What does the PANSS mean?” Schizophrenia research. 2005; 79(2-3):231-238.) All questions are rated on a 7-point scale from 1=absence of symptoms to 7=extremely distinct symptoms. Therefore, the PANSS total score (sum score of all 30 items) can range from 30 to 210. Here applies: the lower the PANSS score the better/healthier is the patient.
The positive scale contains delusion, disorganized thoughts, hallucination, excitement, grandiosity, suspiciousness/persecution, and animosity. Blunted affect, emotional withdrawal, poor rapport, passive/apathetic social withdrawal, difficulty in abstract thinking, stereotyped thinking, lack of spontaneity, and flow of conversation are part of the negative scale. […]

SMILES: C=C(C)[C@@H]1CCC(C)=C[C@H]1c1c(O)cc(CCCCC)cc1O [CBD, cannabidiol]
- PANSS Positive Score (Day 14, mean, SD 4.5, N 36): 18.9
- PANSS Negative Score (Day 14, mean, SD 5.6, N 36): 19.0
- PANSS General Score (Day 14, mean, SD 9.6, N 36): 38.9
- PANSS Total Score (Day 14, mean, SD 17.0, N 36 (CT1 17|PT 19), oral CBD capsules 800 mg/d (CT1) or 600 mg/d (PT)): 76.9
- PANSS Positive Score (Day 28, mean, SD 5.4, N 24): 16.9
- PANSS Negative Score (Day 28, mean, SD 6.2, N 24): 16.1
- PANSS General Score (Day 28, mean, SD 13.1, N 24): 35.9
- PANSS Total Score (Day 28, mean, SD 23.2, N 24 (CT1 14|PT 10)): 68.9

Source: patent US20240192237A1 (curantis UG, priority 2021, published 2024)
